Patent US20240384268A1, “Oligonucleotides” (Hudson Institute of Medical Research, priority 2021, published 2024)
In the oligonucleotide strings, read from the 5' end, every base follows the letter of its sugar. An asterisk marks phosphorothioate; unmarked linkages are phosphodiester. Other units and linkages are bracketed, terminal groups are in braces. A string of capitals states the bases alone. d = 2'-deoxy (DNA); m = 2'-O-methyl

Target: T1, human TLR7 (Homo sapiens, UniProt Q9NYK1)
T1 construct: HA; host or cells: 293XL-hTLR7-HA (HEK293)
T1 sequence (Q9NYK1 27-1049): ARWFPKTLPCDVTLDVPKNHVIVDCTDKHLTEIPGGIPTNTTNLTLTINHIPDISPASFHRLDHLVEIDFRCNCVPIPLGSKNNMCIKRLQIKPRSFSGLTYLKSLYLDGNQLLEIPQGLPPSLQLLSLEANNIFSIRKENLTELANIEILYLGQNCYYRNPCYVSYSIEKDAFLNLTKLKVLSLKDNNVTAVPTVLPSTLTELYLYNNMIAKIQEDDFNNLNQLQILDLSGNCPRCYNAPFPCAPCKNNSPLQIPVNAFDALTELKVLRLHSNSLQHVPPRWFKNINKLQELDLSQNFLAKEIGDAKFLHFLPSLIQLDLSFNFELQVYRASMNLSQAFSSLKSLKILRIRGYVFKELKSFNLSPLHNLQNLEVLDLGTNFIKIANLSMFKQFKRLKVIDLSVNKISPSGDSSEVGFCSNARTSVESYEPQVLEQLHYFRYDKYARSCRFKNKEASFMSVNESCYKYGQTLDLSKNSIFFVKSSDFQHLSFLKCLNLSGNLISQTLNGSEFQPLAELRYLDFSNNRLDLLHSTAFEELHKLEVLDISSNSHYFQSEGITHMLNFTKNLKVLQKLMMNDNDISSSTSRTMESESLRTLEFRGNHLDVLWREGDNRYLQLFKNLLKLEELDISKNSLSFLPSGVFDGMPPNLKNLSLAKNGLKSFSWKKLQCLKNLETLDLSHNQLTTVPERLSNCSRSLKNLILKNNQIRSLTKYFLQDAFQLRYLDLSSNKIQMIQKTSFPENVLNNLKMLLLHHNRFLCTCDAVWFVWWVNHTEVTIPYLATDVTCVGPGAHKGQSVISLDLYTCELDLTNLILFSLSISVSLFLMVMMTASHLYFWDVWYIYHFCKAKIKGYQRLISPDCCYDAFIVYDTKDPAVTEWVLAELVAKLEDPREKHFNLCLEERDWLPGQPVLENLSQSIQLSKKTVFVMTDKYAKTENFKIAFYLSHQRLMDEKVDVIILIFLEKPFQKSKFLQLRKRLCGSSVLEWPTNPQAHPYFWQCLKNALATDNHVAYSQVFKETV
Experiment: HEK-TLR7 NF-κB-luciferase reporter, R848 stimulation
Format: cell-based
Conditions: HEK-TLR7; 100 nM ASO; percentage of R848 without ASO (Alharbi et al., 2020)

Compared with “mC*mA*mC*mU*mG*T*A*T*T*T*T*A*T*T*A*mC*mA*mG*mA*mA (mC*mA*mC*mU*mG*dT*dA*dT*dT*dT*dT*dA*dT*dT*dA*mC*mA*mG*mA*mA; antisense) [[LINC-PINT]2990]”, “mC*mA*mG*mG*mC*C*T*C*C*A*G*T*G*T*C*mU*mU*mC*mU*mC (mC*mA*mG*mG*mC*dC*dT*dC*dC*dA*dG*dT*dG*dT*dC*mU*mU*mC*mU*mC; antisense) [[CDKN2B-AS1]2219]” is lower in “TLR7-100 nM: averaged NF-κB-Luciferase relative to R848” value: 58.13% for the first, 54.11% for the second.

First: mC*mA*mU*mC*mC*C*T*T*C*T*G*C*T*G*C*mC*mA*mA*mG*mC (mC*mA*mU*mC*mC*dC*dT*dT*dC*dT*dG*dC*dT*dG*dC*mC*mA*mA*mG*mC; antisense) [[LINC-PINT]98]
Second: mC*mC*mA*mU*mC*C*C*T*T*C*T*G*C*T*G*mC*mC*mA*mA*mG (mC*mC*mA*mU*mC*dC*dC*dT*dT*dC*dT*dG*dC*dT*dG*mC*mC*mA*mA*mG; antisense) [ILING-PINT199]
The “TLR7-100 nM: averaged NF-κB-Luciferase relative to R848” value of the first is higher: 54.34% for the first, 52.57% for the second.

Going from “mC*mC*mA*mU*mG*T*C*C*C*A*G*G*C*C*T*mC*mC*mA*mG*mU (CCAUGTCCCAGGCCTCCAGU; sugars from the 5' end m5 d10 m5, all phosphorothioate, methylation of C not given here) [[CDKN2B-AS1]2227]” to “mC*mC*mC*mU*mA*A*T*G*C*T*T*T*C*C*T*mC*mU*mC*mC*mA (mC*mC*mC*mU*mA*dA*dT*dG*dC*dT*dT*dT*dC*dC*dT*mC*mU*mC*mC*mA; antisense) [[LINC-PINT1877 KL]”, the “TLR7-100 nM: averaged NF-κB-Luciferase relative to R848” value rises from 41.39% to 58.39%.

First: mC*mC*mC*mU*mU*C*T*C*T*C*T*G*G*T*C*mC*mC*mA*mU*mC (mC*mC*mC*mU*mU*dC*dT*dC*dT*dC*dT*dG*dG*dT*dC*mC*mC*mA*mU*mC; antisense) [[LINC-PINT]114]
Second: mC*mC*mU*mA*mG*A*A*A*G*A*A*G*C*A*A*mA*mG*mA*mU*mU (mC*mC*mU*mA*mG*dA*dA*dA*dG*dA*dA*dG*dC*dA*dA*mA*mG*mA*mU*mU) [[CDKN2B-AS1]1522]
The “TLR7-100 nM: averaged NF-κB-Luciferase relative to R848” value of the first is lower: 49.59% for the first, 57.20% for the second.

First: mC*mC*mU*mU*mC*T*C*T*C*T*G*GT*C*C*mC*mA*mU*mC*mC (CCUUCTCTCTGGTCCCAUCC; antisense; chemistry not fully specified) [[LINC-PINT]113]
Second: mC*mC*mU*mU*mC*T*G*C*T*G*C*C*A*A*G*mC*mC*mC*mC*mA (mC*mC*mU*mU*mC*dT*dG*dC*dT*dG*dC*dC*dA*dA*dG*mC*mC*mC*mC*mA; antisense) [[LINC-PINT]94]
The “TLR7-100 nM: averaged NF-κB-Luciferase relative to R848” value of the first is lower: 60.90% for the first, 85.57% for the second.

Going from “mC*mU*mC*mU*mC*T*G*G*T*C*C*C*A*T*C*mC*mC*mU*mU*mC (mC*mU*mC*mU*mC*dT*dG*dG*dT*dC*dC*dC*dA*dT*dC*mC*mC*mU*mU*mC; antisense) [[LINC-PINT]109]” to “mC*mU*mU*mC*mU*C*T*C*T*G*G*T*C*C*C*mA*mU*mC*mC*mC (mC*mU*mU*mC*mU*dC*dT*dC*dT*dG*dG*dT*dC*dC*dC*mA*mU*mC*mC*mC) [[LINC-PINT]112]”, the “TLR7-100 nM: averaged NF-κB-Luciferase relative to R848” value falls from 84.97% to 56.20%.

Compared with “mC*mU*mU*mU*mA*T*A*T*T*A*C*A*A*A*G*mC*mU*mA*mC*mU (mC*mU*mU*mU*mA*dT*dA*dT*dT*dA*dC*dA*dA*dA*dG*mC*mU*mA*mC*mU; antisense) [[LINC-PINT]2755]”, “mG*mA*mA*mA*mA*G*A*T*T*A*T*C*T*T*C*mU*mU*mU*mU*mA (GAAAAGATTATCTTCUUUUA; sugars from the 5' end m5 d10 m5, all phosphorothioate, methylation of C not given here) [[CDKN2B-AS1]2134]” is lower in “TLR7-100 nM: averaged NF-κB-Luciferase relative to R848” value: 54.83% for the first, 34.44% for the second.

First: mG*mA*mU*mG*mG*T*T*C*C*A*G*T*C*C*C*mU*mC*mU*mU*mC (GAUGGTTCCAGTCCCUCUUC; antisense; sugars from the 5' end m5 d10 m5, all phosphorothioate, methylation of C not given here) [[LINC-PINT]1497.1]
Second: mG*mA*mU*mU*mA*A*A*A*C*A*G*A*T*T*A*mA*mU*mA*mC*mA (mG*mA*mU*mU*mA*dA*dA*dA*dC*dA*dG*dA*dT*dT*dA*mA*mU*mA*mC*mA) [[CDKN2B-AS1]1773]
The “TLR7-100 nM: averaged NF-κB-Luciferase relative to R848” value of the first is higher: 22.32% for the first, 21.92% for the second.

Going from “mG*mC*mG*mU*mA*G*T*T*T*C*T*C*T*T*C*mC*mU*mC*mC*mC (GCGUAGTTTCTCTTCCUCCC; sugars from the 5' end m5 d10 m5, all phosphorothioate, methylation of C not given here) [[LINC-PINT]935 KL]” to “mG*mG*mA*mU*mU*A*A*A*A*C*A*G*A*T*T*mA*mA*mU*mA*mC (GGAUUAAAACAGATTAAUAC; sugars from the 5' end m5 d10 m5, all phosphorothioate, methylation of C not given here) [[CDKN2B-AS1]1774]”, the “TLR7-100 nM: averaged NF-κB-Luciferase relative to R848” value falls from 27.23% to 27.16%.

First: mG*mG*mG*mU*mC*T*C*C*T*C*C*A*C*A*C*mC*mC*mU*mU*mC (GGGUCTCCTCCACACCCUUC; antisense; sugars from the 5' end m5 d10 m5, all phosphorothioate, methylation of C not given here) [[LINC-PINT]128]
Second: mG*mG*mU*mC*mC*C*A*T*C*C*C*T*T*C*T*mG*mC*mU*mG*mC (GGUCCCATCCCTTCTGCUGC; sugars from the 5' end m5 d10 m5, all phosphorothioate, methylation of C not given here) [[LINC-PINT]103]
The “TLR7-100 nM: averaged NF-κB-Luciferase relative to R848” value of the first is higher: 21.47% for the first, 20.75% for the second.

Going from “mG*mG*mU*mC*mU*C*C*T*C*C*A*C*A*C*C*mC*mU*mU*mC*mU (mG*mG*mU*mC*mU*dC*dC*dT*dC*dC*dA*dC*dA*dC*dC*mC*mU*mU*mC*mU; antisense) [[LINC-PINT]127]” to “mG*mG*mU*mG*mG*C*C*A*C*A*G*G*C*A*A*mC*mG*mU*mC*mA (GGUGGCCACAGGCAACGUCA; antisense; sugars from the 5' end m5 d10 m5, all phosphorothioate, methylation of C not given here) [[CDKN2B-AS1]2196]”, the “TLR7-100 nM: averaged NF-κB-Luciferase relative to R848” value rises from 23.66% to 39.07%.

Going from “mG*mU*mC*mA*mA*A*C*C*T*A*G*A*A*A*G*mA*mA*mG*mC*mA (mG*mU*mC*mA*mA*dA*dC*dC*dT*dA*dG*dA*dA*dA*dG*mA*mA*mG*mC*mA; antisense) [[CDKN2B-AS1]1528]” to “mG*mU*mC*mC*mC*A*G*G*C*C*T*C*C*A*G*mU*mG*mU*mC*mU (mG*mU*mC*mC*mC*dA*dG*dG*dC*dC*dT*dC*dC*dA*dG*mU*mG*mU*mC*mU; antisense) [[CDKN2B-AS1]2223]”, the “TLR7-100 nM: averaged NF-κB-Luciferase relative to R848” value falls from 23.64% to 19.01%.

First: mG*mU*mC*mC*mC*A*T*C*C*C*T*T*C*T*G*mC*mU*mG*mC*mC (GUCCCATCCCTTCTGCUGCC; antisense; sugars from the 5' end m5 d10 m5, all phosphorothioate, methylation of C not given here) [[LINC-PINT]102]
Second: mG*mU*mC*mC*mG*T*A*C*C*T*C*C*A*C*C*mC″mA*mC*mC*mG [[LINC-PINT]727.1]
The “TLR7-100 nM: averaged NF-κB-Luciferase relative to R848” value of the first is lower: 22.47% for the first, 22.79% for the second.

Compared with “mG*mU*mC*mU*mC*C*T*C*C*A*C*A*C*C*C*mU*mU*mC*mU*mC (mG*mU*mC*mU*mC*dC*dT*dC*dC*dA*dC*dA*dC*dC*dC*mU*mU*mC*mU*mC; antisense) [[LINC-PINT]126]”, “mG*mU*mU*mC*mA*G*T*C*A*G*A*T*C*G*C*mU*mG*mG*mG*mA (mG*mU*mU*mC*mA*dG*dT*dC*dA*dG*dA*dT*dC*dG*dC*mU*mG*mG*mG*mA) [[LINC-PINT]412 KL]” is lower in “TLR7-100 nM: averaged NF-κB-Luciferase relative to R848” value: 25.01% for the first, 17.46% for the second.

In the case of “mG*mC*mA*mA*mG*G*C*A*G*A*G*A*A*A*C*mU*mC*mC*mA*mG (GCAAGGCAGAGAAACUCCAG; sugars from the 5' end m5 d10 m5, all phosphorothioate, methylation of C not given here) [[LINC-PINT]1315 KL]”, the “TLR7-100 nM: averaged NF-κB-Luciferase relative to R848” value is reported as 19,99%.
